What was measured:
[1] = Breath Biopsy: VOCs in exhaled breath after ingestion of a peppermint capsule; format: in vivo; settings: for VOC level in breath compared to baseline pre-ingestion controls: breath captured 30 minutes after consumption of the peppermint capsule, FIG. 1; for VOC level in breath compared to baseline pre-ingestion controls / relative abundance among peppermint-related compounds in breath: single individual
Description: For comparison, two breath collections were made from the same individual prior to ingestion to provide a baseline concentration for the VOCs of interest. Breath samples were analysed in the Breath Biopsy® Clinical Lab by FAIMS and TD-GC-TOF mass spectrometry.

[2] = target: CYP3A4 (Homo sapiens, UniProt P08684); settings: cited from earlier work
Sequence of CYP3A4 (P08684 whole entry): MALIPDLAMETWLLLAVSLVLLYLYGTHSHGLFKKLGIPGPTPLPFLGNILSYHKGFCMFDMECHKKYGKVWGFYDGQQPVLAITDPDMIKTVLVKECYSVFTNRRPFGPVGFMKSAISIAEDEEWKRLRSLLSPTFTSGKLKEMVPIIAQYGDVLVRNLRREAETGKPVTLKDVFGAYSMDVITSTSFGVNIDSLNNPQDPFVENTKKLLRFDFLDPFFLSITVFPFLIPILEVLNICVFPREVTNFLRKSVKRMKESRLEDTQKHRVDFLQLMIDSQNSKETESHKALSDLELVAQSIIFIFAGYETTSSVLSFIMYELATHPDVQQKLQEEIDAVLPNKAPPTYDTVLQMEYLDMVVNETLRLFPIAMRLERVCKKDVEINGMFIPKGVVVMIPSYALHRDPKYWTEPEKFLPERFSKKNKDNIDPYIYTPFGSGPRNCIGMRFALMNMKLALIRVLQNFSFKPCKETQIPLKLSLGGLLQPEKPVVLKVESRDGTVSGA

[3] = system: CYP2C19 and CYP2C9 enzymes; experiment: Clinical study: limonene in exhaled breath, patients treated with an atherothrombotic drug versus untreated controls; format: in vivo; settings: drug metabolised by CYP2C19 and CYP2C9 competes with limonene metabolism; FIG. 5
Source text: FIG. 5. Limonene concentration in the exhaled breath of patients prescribed with an atherothrombotic drug that is metabolised by CYP2C19 and CYP2C9 enzymes.
The drug is metabolised by CYP2C19 and CYP2C9 enzymes. […] As less limonene is metabolised compare dot eh control group.

[4] = after consumption of the peppermint capsule

Compound: CC1CCC(C(C)C)C(O)C1 (racemic) [(±)-menthol]
- VOC level in breath compared to baseline pre-ingestion controls [1]: large increase

Compound: CC12CCC(CC1)C(C)(C)O2 [eucalyptol]
- VOC level in breath compared to baseline pre-ingestion controls [1]: large increase
- metabolising enzyme [2]: specifically metabolised by CYP3A4

Compound: C=C(C)[C@H]1CC=C(C)CC1 [limonene]
- concentration in breath [1, 4]: part-per-trillion (ppt) concentrations
- relative abundance among peppermint-related compounds in breath [1, 4]: most abundant
- VOC level in breath compared to baseline pre-ingestion controls [1]: large increase
- limonene in exhaled breath, drug-treated patients versus untreated control group [3]: higher secretion of limonene into breath

Compound: CC1=CCC2CC1C2(C)C (stereo not drawn) [α-pinene]
- VOC level in breath compared to baseline pre-ingestion controls [1]: large increase

Compound: C=C1CCC2CC1C2(C)C (stereo not drawn) [β-pinene]
- relative abundance among peppermint-related compounds in breath [1, 4]: most abundant
- VOC level in breath compared to baseline pre-ingestion controls [1]: large increase

From patent US20220228192A1, “Method To Evaluate Metabolic Activity Of Liver Enzymes” (Owlstone Medical Limited, priority 2018, published 2022)
